According to patent US10376593B2, “Glycoconjugates and their use as potential vaccines against infection by Shigella flexneri” (INSTITUT PASTEUR, priority 2012, dated 2019):

Target: mIgG A22-4′ (anti-S. flexneri serotype 6 LPS monoclonal antibody) binding to SF6 LPS
Experiment: Inhibition ELISA: binding of mIgG A22-4′ to synthetic oligosaccharides (inhibition of mIgG binding to SF6 LPS)
Design: species or system mouse
Conditions: concentration of oligosaccharide required to inhibit 50% of mIgG A22-4′ (0.025 μg/ml) binding to purified SF6 LPS (strain Sc544); oligosaccharides tested as propyl glycoside; max 2.5 mM; ≤ = inferior to but close to the value
Protocol: 2) ELISA for IC50 Measurements
The binding of the available mIgG A22-4′ to the synthetic oligosaccharides was measured as previously described (Phalipon A. et al (J. Immunol. 176 1686 (2006)). Briefly, the mIgG concentration to be used was defined in the first step. To do so, a standard curve was established for mIgG A22-4′. The mIgG was incubated at different concentrations, overnight at 4° C., on microtiter plates coated with SF6 LPS purified from the strain SF6 Sc544 at a concentration of […] in a carbonate buffer (pH 9.6), then with PBS-BSA 1% for 30 min at 4° C. After washing with PBS-Tween 20 (0.05%), alkaline phosphatase conjugated anti-mouse IgG was added at a dilution of 1/5,000 (Sigma-Aldrich) for 1 h at 37° C. After washing with PBS-Tween 20 (0.05%), the substrate was added (12 mg of p-nitrophenyl phosphate in 1.2 mL of 1 M Tris-HCl buffer (pH 8.8) and 10.8 mL of 5 M NaCl). Once the color developed, the plate was read at 405 nm Dynatech MR400 microplate reader). A standard curve OD=f([Ab]) was fitted to the quadratic equation Y=aX2+bX+c, where Y is the OD and X is the Ab concentration. A correlation factor (r^2) of 0.99 was routinely obtained. The mIgG A22-4′ concentration to be used in the second step for measuring the IC50, which is defined as the concentration of oligosaccharides required to inhibit 50% of mIgG binding to LPS, was chosen as follows. It corresponds to the minimal concentration of mAb which gives the maximal OD on the standard curve.
The maximum concentration tested was 2.5 mM for all oligosaccharides. Then, measurement of unbound mIgG was performed as described above using microtiter plates coated with purified SF6 LPS. The mAb concentration was deduced from the standard curve. A 100% unbound mIgG concentration was defined for the mAb incubated in the same conditions but without any oligosaccharide. […]
The binding of mIgG A22-4′ to the synthetic and oligo- or polysaccharides was evaluated in inhibition ELISA (Table B)

| SMILES | IC50 [µM] |
| --- | --- |
| CCCO[C@@H]1O[C@H](CO)[C@H](O)[C@H](O[C@@H]2O[C@H](C(=O)O)[C@H](O[C@@H]3O[C@@H](C)[C@H](O)[C@@H](O)[C@H]3O[C@@H]3O[C@@H](C)[C@H](O)[C@@H](OC(C)=O)[C@H]3O)[C@H](O)[C@H]2O)[C@H]1NC(C)=O [AcCDAB, Propyl 3-O-acetyl-α-L-rhamnopyranosyl-(1→2)-α-L-rhamnopyranosyl-(1→4)-β-D-galactopyranosyluronic acid-(1→3)-2-acetamido-2-deoxy-β-D-galactopyranoside] | 36 |
| CCCO[C@@H]1O[C@H](CO)[C@H](O)[C@H](O[C@@H]2O[C@H](C(=O)O)[C@H](O[C@@H]3O[C@@H](C)[C@H](O)[C@@H](O)[C@H]3O[C@@H]3O[C@@H](C)[C@H](O)[C@@H](O)[C@H]3O)[C@H](O)[C@H]2O)[C@H]1NC(C)=O [CDAB, Propyl α-L-rhamnopyranosyl-(1→2)-α-L-rhamnopyranosyl-(1→4)-β-D-galactopyranosyluronic acid-(1→3)-2-acetamido-2-deoxy-β-D-galactopyranoside] | 16 |
| CCCO[C@@H]1O[C@@H](C)[C@H](O)[C@@H](OC(C)=O)[C@H]1O[C@@H]1O[C@H](CO)[C@H](O)[C@H](O[C@@H]2O[C@H](C(=O)O)[C@H](O[C@@H]3O[C@@H](C)[C@H](O)[C@@H](O)[C@H]3O[C@@H]3O[C@@H](C)[C@H](O)[C@@H](OC(C)=O)[C@H]3O)[C@H](O)[C@H]2O)[C@H]1NC(C)=O [AcCDABAcC, Propyl 3-O-acetyl-α-L-rhamnopyranosyl-(1→2)-α-L-rhamnopyranosyl-(1→4)-β-D-galactopyranosyluronic acid-(1→3)-2-acetamido-2-deoxy-β-D-galactopyranosyl-(1→2)-3-O-acetyl-α-L-rhamnopyranoside] | ≤ 500 |
